According to ChEMBL document CHEMBL1201862, “PubChem BioAssay data set” (2004):
Calls of active or inactive are those of the source.

Key:
[1] = target: T1, Sentrin-specific protease 1 (Homo sapiens, UniProt Q9P0U3); assay: SENP1 catalytic domain blockers, concentration series – biochemical, kinetic FRET, dose response (AID 651697); assay type: functional; conditions: read-out: IC50_Mean
T1 sequence (Q9P0U3 whole entry): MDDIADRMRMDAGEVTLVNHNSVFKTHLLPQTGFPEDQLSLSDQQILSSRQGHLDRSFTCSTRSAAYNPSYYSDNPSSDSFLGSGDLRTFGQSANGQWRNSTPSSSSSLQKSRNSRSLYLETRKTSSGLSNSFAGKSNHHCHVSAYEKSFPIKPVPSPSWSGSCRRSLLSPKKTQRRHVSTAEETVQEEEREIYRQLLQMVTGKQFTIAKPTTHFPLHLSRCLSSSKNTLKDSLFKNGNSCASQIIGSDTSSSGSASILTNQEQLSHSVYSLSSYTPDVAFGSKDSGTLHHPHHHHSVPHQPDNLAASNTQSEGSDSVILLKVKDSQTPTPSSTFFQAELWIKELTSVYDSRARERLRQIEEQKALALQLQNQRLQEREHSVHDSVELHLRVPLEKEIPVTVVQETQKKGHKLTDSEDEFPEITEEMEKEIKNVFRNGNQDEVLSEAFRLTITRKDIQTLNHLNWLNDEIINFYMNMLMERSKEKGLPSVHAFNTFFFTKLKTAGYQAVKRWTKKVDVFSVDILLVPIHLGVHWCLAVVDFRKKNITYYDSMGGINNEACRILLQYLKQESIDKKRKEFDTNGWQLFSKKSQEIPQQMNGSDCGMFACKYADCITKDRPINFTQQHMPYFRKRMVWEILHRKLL

[2] = target: T1, Sentrin-specific protease 1; assay: Dose response confirmation of small molecule inhibitors of the catalytic domain of the SUMO protease, SENP1 in a FRET assay.; assay type: functional; conditions: read-out: IC50_Mean
[3] = target: Glucose-6-phosphate 1-dehydrogenase (Homo sapiens, UniProt P11413); assay: inhibition of Homo sapiens G6PD, dose series – biochemical, fluorescence, selectivity assay for P. falciparum G6PD inhibitor project, dose response (AID 504792); assay type: functional
[4] = target: T2, Heat shock factor protein 1 (Mus musculus, UniProt P38532); assay: decrease of HSF1-responsive luciferase luminescence – cell-based, NIH3T3, dose retest, confirmation (AID 2382); assay type: functional;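 further: NIH3T3 fibroblasts with HSF1-driven luciferase reporter stressed by proteasome inhibitor MG132; luminescence from HSF1-driven luciferase expression after 8 hours of MG132 stress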
T2 sequence (P38532 whole entry): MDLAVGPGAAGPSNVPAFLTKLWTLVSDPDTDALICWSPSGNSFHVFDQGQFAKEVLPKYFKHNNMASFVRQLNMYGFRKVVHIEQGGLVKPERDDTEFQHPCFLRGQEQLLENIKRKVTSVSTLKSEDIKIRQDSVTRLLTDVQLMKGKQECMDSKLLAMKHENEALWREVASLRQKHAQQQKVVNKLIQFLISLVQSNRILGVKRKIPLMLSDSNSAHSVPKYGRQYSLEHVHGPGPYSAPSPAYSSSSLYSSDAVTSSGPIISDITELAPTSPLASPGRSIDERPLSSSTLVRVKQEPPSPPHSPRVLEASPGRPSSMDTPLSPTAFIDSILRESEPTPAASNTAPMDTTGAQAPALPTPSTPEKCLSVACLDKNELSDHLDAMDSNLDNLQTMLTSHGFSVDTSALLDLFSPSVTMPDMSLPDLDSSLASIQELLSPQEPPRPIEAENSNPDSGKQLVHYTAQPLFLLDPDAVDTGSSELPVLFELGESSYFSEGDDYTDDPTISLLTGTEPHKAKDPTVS

[5] = non-specific 3'UTR reporter inhibition in Clone20-Shn3RL – cell-based, Renilla luciferase, cherry-picked, counter-screen for Shn3 inhibitor project, dose response (AID 624133); assay type: functional
Vero [6] = assay: cells; assay type: functional; conditions: Chlorocebus sabaeus
[7] = loss of viability in HepG2 cells – cell-based, CellTiter-Glo, cherry-picked, cytotoxicity control for Shn3 inhibitor project, dose response (AID 624134); assay type: functional
Vero [8] = assay: cells; assay type: functional, cell-based; conditions: Chlorocebus sabaeus
[9] = reduction of Shn3 3'UTR-driven luciferase in osteoblasts – cell-based, Clone20 osteoblasts, firefly luciferase, cherry-picked, dose response (AID 624132); assay type: functional;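 further: firefly luciferase luminescence from reporter carrying the Shn3 3'UTR in osteoblasts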
[10] = target: T3, RNA-binding protein pos-1 (Caenorhabditis elegans, UniProt G5EF15); assay: disruptors of C. elegans POS-1 RNA interaction – biochemical, fluorescence polarization, dose response (AID 1964);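 further: purified POS-1 fused to maltose binding protein made in E. coli; potency of compounds blocking POS-1 binding to fluorescent RNA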
T3 sequence (G5EF15 whole entry): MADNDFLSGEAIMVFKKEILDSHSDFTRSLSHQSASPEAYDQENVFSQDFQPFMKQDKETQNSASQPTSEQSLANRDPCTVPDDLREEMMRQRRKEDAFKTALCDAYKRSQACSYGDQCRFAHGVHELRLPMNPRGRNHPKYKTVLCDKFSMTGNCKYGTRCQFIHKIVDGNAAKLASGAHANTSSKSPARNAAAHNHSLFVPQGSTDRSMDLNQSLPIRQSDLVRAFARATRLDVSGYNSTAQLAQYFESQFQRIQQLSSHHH

[11] = target: T4, Zinc finger protein mex-5 (Caenorhabditis elegans, UniProt Q9XUB2); assay: potency of MEX-5 RNA-binding blockers – biochemical, C. elegans, fluorescence polarization, dose response (AID 1960)
T4 sequence (Q9XUB2 whole entry): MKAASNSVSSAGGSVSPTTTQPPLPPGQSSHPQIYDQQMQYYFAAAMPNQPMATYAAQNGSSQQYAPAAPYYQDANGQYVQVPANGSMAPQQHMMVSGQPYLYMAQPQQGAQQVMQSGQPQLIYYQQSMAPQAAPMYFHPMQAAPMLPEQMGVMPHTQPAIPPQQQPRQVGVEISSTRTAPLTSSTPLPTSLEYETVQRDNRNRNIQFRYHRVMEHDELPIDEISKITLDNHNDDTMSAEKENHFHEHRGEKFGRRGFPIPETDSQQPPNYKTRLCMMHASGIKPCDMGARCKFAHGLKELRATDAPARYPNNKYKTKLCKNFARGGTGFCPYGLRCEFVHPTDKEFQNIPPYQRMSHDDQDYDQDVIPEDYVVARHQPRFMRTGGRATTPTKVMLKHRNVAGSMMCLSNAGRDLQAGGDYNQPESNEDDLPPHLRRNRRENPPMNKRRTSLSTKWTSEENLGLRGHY

[12] = Trypanosoma cruzi growth suppression in host cells – NIH3T3 host cells, beta-gal luminescence, confirmation (AID 2044); assay type: functional, cell-based;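 further: intracellular parasites grown in NIH/3T3 mouse fibroblasts as host cells; luminescent beta-galactosidase reporter signal from transgenic T. cruzi replicating inside host cells; inhibitors lower the luminescence signal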
[13] = Luminescence Cell-Based Dose Confirmation HTS to Identify Inhibitors of Platelet Dense Granule Release. [Related pubchem assays: 1663 (Primary HTS), 1678 (Summary of Project)]; assay type: functional
Streptococcus = assay: GAS UMAA2166 growth inhibition – luminescence, BacTiterGlo, counter-screen for streptokinase expression inhibitor project, dose response (AID 1915); assay type: functional, organism-based;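 further: potency for reduction of bacterial viability or growth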
HEK293 = assay: EBV LMP1 TES2 canonical NF-kB signalling blockers – cell-based, HEK293, luciferase, cherry-pick, dose response (AID 588343); assay type: functional; conditions: Homo sapiens
[14] = NIH3T3 cell viability loss – ATP luminescence, mouse fibroblasts, counter-screen, dose response (AID 2010); assay type: functional, cell-based;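 further: cells exposed to compound for about 90 hours before reading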
Streptokinase A = target: T5, Streptokinase A (Streptococcus pyogenes serotype M1, UniProt P10520); assay: viability-normalized secreted streptokinase activity reduction – plasminogen activation absorbance, OD405, dose response (AID 1914); assay type: functional, Streptococcus pyogenes M1 GAS;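 further: secreted streptokinase activity via plasminogen activation per viability signal from cell pellet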
T5 sequence (P10520 whole entry): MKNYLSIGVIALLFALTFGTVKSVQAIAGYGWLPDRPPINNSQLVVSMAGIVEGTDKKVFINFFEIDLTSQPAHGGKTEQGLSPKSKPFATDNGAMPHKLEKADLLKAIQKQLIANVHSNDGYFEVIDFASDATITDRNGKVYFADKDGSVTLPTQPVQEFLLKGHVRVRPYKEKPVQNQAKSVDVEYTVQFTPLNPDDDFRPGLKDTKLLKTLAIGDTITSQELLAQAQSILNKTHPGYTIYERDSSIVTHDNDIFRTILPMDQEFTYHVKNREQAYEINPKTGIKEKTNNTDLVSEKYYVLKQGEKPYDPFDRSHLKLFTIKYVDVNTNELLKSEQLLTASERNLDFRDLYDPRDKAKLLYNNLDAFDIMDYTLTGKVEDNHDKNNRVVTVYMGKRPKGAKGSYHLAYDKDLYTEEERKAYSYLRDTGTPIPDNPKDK

[15] = system: Streptococcus sp. 'group A'; assay: Streptococcus pyogenes SK(-)GAS viability under kanamycin – luminescence, BacTiterGlo, confirmation, counter-screen for streptokinase expression inhibitor project, dose response (AID 1900); assay type: functional, organism-based
[16] = target: Luciferin 4-monooxygenase (Photinus pyralis, UniProt P08659); assay: inhibition of purified Photinus pyralis luciferase – biochemical, luminescence, dose response (AID 1891)
Luciferin 4-monooxygenase, sequence (P08659 whole entry): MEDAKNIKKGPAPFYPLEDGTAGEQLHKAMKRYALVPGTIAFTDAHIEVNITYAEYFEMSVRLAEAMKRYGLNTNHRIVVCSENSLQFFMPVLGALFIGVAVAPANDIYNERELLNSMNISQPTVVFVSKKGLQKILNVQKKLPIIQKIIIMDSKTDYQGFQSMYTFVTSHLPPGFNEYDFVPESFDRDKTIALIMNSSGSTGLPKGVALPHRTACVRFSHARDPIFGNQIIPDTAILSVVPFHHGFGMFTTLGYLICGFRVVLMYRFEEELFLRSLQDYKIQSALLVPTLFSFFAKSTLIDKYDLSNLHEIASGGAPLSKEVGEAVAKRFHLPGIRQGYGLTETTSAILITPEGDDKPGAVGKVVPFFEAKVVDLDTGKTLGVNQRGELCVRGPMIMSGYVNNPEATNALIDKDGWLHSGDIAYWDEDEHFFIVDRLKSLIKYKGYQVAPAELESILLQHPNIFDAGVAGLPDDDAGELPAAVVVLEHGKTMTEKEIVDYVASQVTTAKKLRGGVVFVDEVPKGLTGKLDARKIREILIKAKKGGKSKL

Glucose-6-phosphate 1-dehydrogenase, sequence (P11413 whole entry): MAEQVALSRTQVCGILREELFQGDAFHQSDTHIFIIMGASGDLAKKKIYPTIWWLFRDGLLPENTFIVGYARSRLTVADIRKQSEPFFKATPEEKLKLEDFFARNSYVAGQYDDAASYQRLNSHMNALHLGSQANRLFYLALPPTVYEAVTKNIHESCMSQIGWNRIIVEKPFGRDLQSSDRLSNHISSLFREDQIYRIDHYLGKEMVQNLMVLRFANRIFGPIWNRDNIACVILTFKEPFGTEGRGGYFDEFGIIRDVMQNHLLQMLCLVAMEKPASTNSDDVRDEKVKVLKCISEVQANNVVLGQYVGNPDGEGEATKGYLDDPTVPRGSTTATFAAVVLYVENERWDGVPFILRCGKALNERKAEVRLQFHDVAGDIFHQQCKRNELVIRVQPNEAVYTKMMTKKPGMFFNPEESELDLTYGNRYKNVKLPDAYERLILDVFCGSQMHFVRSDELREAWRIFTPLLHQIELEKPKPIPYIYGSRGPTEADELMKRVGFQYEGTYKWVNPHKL

SMILES: COc1ccc(NN=C2C(=O)NC(=S)NC2=O)cc1
- IC50 [1]: 29.1 µM (inactive)
- IC50 [2]: 16.6 µM (active)

SMILES: Cn1c(-c2sccc2OCc2cccc(C(F)(F)F)c2)n[nH]c1=S
- IC50 [3]: > 80 µM (inactive)
- EC50 [4]: > 195 µM (not active)

SMILES: Cc1ccc(N2CC(C(=O)OCC(=O)c3ccc([N+](=O)[O-])cc3)CC2=O)cc1 (configuration not stated)
- IC50 [3]: > 80 µM (inactive)

SMILES: CCC1CSC(Nc2ccc(C(=O)/C=C/c3ccc(OC)c(OC)c3)cc2)=N1 (configuration not stated)
- AC50 [5]: 6.23 µM (active)
- CC50 (Vero [6]): 18.1 µM (active)
- AC50 [7]: 51.2 µM (active)
- IC50 (Vero [8]): 23.5 µM (active)
- AC50 [9]: 4.47 µM (active)

SMILES: O=C(CN1C(=O)/C(=C\C=C\c2ccccc2)SC1=S)Nc1ccc(F)cc1
- IC50 [1]: 7.54 µM (active)
- EC50 [10]: > 300 µM (not active)
- EC50 [11]: > 300 µM (not active)
- IC50 [2]: 5.21 µM (active)

SMILES: Oc1c(N=NC(S)=Nc2ccccc2F)c2ccccc2n1Cc1cccc(Cl)c1
- EC50 [12]: 0.676 µM (active)
- EC50 [13]: > 112 µM (not active)
- EC50 (Streptococcus): > 150 µM (not active)
- AC50 (HEK293): 4.15 µM (active)
- EC50 [14]: 1.71 µM (active)
- EC50 (Streptokinase A): > 150 µM (not active)
- EC50 [15]: 2.69 µM (active)
- EC50 [16]: > 112 µM (not active)
